Measurements from patent US5716950A, “Diazacycloalkanealkylsulfonamide derivatives” (Nippon Shoji Kabushiki Kaisha, priority 1994, dated 1998).
Like-named read-outs stand apart in the source and are kept apart here.

What was measured:
[1] = tested on: passive cutaneous anaphylaxis (PCA); assay: Activity of suppressing passive cutaneous anaphylaxis (PCA); assay type: in vivo, Male Wistar rats
Protocol: Test compounds were examined on their antiallergic activities. […] After 48 hours, 1.0 ml of 0.5 % Evans Blue saline solution containing DNP.BSA (1 mg in protein) was injected through the tail vein to induce allergic reaction. After 30 minutes, the rats were sacrificed by bleeding and the skin of back where dye was leaked out was flayed and put it into 20 ml test tube with ground stopper. Thereto was added 1.0 ml of 1N KOH aqueous solution and then it was allowed to stand at 37° C. in incubator overnight for lysing. To this solution was added 8.3 ml of a mixture of acetone and 0.6N phosphoric acid (13:5) and the mixture was mixed well and then was filtered to remove the insoluble materials.
The test compounds were administered orally 1 hour before the antigen challenge. Suppression rate was expressed by percentage to the value in control where 0.5% aqueous methylcellulose solution was orally administered.

[2] = tested on: extracted ileum (histamine contraction); assay: Antihistaminic activity: suppression of histamine-induced contraction of extracted ileum; parameters: species or system Female Hartley guinea pig; conditions: histamine 3×10^-7 M; guinea pig ileum; 50% suppression of contraction; read-out: anti-His in extracted ileum EC50
Protocol: Female Hartley guinea pig (weighing 500 to 650 g) were sacrificed and the ileum (length of about 10 to 25 cm) was extracted from the ileocecum to prepare a specimen (length of 3 cm). […] After allowing to stand for 60 minutes to make the specimen stable, a histamine (3×10^-7 M) was applied to the specimen at single application. Contraction of the specimen was determined and recorded using isotonic transducer. After repeating application of a histamine to make the contraction constant, a diluted solution of the test compound was applied. Three minutes after the application, a histamine was then added and an activity of suppressing contraction was examined.

[3] = tested on: mouse biphasic allergic dermal reaction; assay: Mouse Biphasic Allergic Dermal Reaction; assay type: in vivo, Female Balb/c mice; conditions: for inhibition in vivo at 1 mg/kg / inhibition in vivo at 0.1 mg/kg / inhibition in vivo at 3 mg/kg / inhibition in vivo at 10 mg/kg / inhibition in vivo at 30 mg/kg: Mus musculus; for suppression of the late allergic reaction (in words): edema after 24 hours; for suppression of the immediate allergic reaction (in words): edema after 1 hour
Protocol: Female Balb/c mice (weighing 18 to 25 g) were subjected to passive sensitization by intravenous administration of 1 ml of anti-DNP monoclonal IgE antibody showing 1:1024 of antibody titer. 24 hours after the sensitization, 25 μl of 0.15% dinitrofluorobenzene (DNFB) were applied to both sides of right and left auricles of mouse for inducing allergic reactions. Thickness of auricles were measured using Dial Thickness Gauge before the challenge with DNFB, and 1 and 24 hours after the challenge. And then, increase in thickness of auricles at 1 hour after the challenge (edema caused by immediate allergic reaction) and that at 24 hours after the challenge (edema caused by late allergic reaction) were calculated against the thickness of auricles before the challenge with DNFB, respectively.
Suppression rate was expressed by relative ratio (%) to the value in control in which a solvent was administered.
Test compounds, diphenhydramine which is a existing classical antihistamic drug, amlexanox which is an antiallergic drug and dexamethasone which is a steroidal drug were administered orally (partly intraperitoneally) once before antigen challenge.
The above test was performed by using a mouse biphasic allergic dermal reaction model which was a new model [see, Sakurai T, Inagaki, N. and Nagai, H Life Sci., 54, PL291-295 (1994)]. In this model, the immediate allergic reaction was induced by mediator release from mast cell at 1 hour after the challenge, and the late allergic reaction with inflammatory cells such as eosinophil (edema after 24 hours) was induced after 24 hours from the challenge.

[4] = tested on: male ICR mice; assay: Toxicity Test (mouse acute toxicity, minimum lethal dose); assay type: in vivo; conditions: po, observed for 24 hours, head prints (10 mg/kg-po)
From the text: The test compounds were orally administered to male ICR mice (weighing to 30 g) after fasting overnight. […] The results were expressed by minimum lethal dose. Toxicity of any compounds of the present invention were weaker than that of ketotifen which was a reference compound.

[5] = Rattus norvegicus, po, 1 h, 10 mg/kg-po, 1 hour before antigen challenge, read-out: % suppression of rat PCA
[6] = 1 h, 1.0 mg/kg, oral, read-out: immediate edema (1 hr) suppression (%)
[7] = 24 h, 0.1 mg/kg, oral, read-out: late edema (24 hr) suppression (%)
[8] = 24 h, 1.0 mg/kg, oral, read-out: late edema (24 hr) suppression (%)
[9] = po, 1 h, read-out: immediate edema (1 hr) suppression (%)
[10] = po, 24 h, read-out: late edema (24 hr) suppression (%)

SMILES | inhibition in vivo at 10 mg/kg [1, 5] [%] | EC50 [2] [nM] | further results
CNS(=O)(=O)CCCCCN1CCN(C(c2ccccc2)c2ccccc2)CC1 [Example 19] | 78 | 460 | 
CCNS(=O)(=O)CCCCCCCCN1CCN(C(c2ccc(F)cc2)c2ccccn2)CC1 (stereo not shown) [Example 34] | 84.8 | 330 | 
CCCNS(=O)(=O)CCCCCCN1CCN(C(c2ccccc2)c2ccc(Cl)cc2)CC1 (stereo not shown) [Example 36] | 77.5 | 560 | 
O=S(=O)(CCCCCCCCN1CCN(C(c2ccc(F)cc2)c2ccccn2)CC1)NC1CC1 (stereo not shown) [Example 57] | 90.6 | 390 | inhibition in vivo at 1 mg/kg [3, 6]: 31.6%; inhibition in vivo at 0.1 mg/kg [3, 7]: 7.7%; inhibition in vivo at 1 mg/kg [3, 8]: 46.2%; suppression of the late allergic reaction (in words) [3]: showed strong activity of suppressing the late allergic reaction
O=S(=O)(CCCCCCCCCCN1CCN(C(c2ccc(F)cc2)c2ccccn2)CC1)NC1CC1 (stereo not shown) [Example 58] | 76.5 | 350 | 
CN(C)S(=O)(=O)CCCCCCN1CCN(C(c2ccccc2)c2ccc(F)cc2)CC1 (stereo not shown) [Example 68] | 94.5 | 370 | 
CN(C)S(=O)(=O)CCCCCCN1CCN(C(c2ccc(F)cc2)c2ccccn2)CC1 (stereo not shown) [Example 82] | 86.8 | 790 | 
CNS(=O)(=O)CCCCCN1CCN(C(c2ccccc2)c2ccc(Cl)cc2)CC1 (stereo not shown) [Example 106] | 90.3 | 400 | 
CCNS(=O)(=O)CCCCCCCN1CCN(C(c2ccccc2)c2ccc(Cl)cc2)CC1 (stereo not shown) [Example 107] | 87.8 | 620 | 
CC(C)NS(=O)(=O)CCCCCN1CCN(C(c2ccccc2)c2ccc(Cl)cc2)CC1 (stereo not shown) [Example 110] | 88.3 | 570 | 
O=S(=O)(CCCCN1CCN(C(c2ccccc2)c2ccc(Cl)cc2)CC1)NC1CC1 (stereo not shown) [Example 113] | 87.5 | 710 | 
O=S(=O)(CCCCCN1CCN(C(c2ccccc2)c2ccc(Cl)cc2)CC1)NC1CC1 (stereo not shown) [Example 114] | 83.5 | 560 | 
O=S(=O)(CCCCCCN1CCN(C(c2ccccc2)c2ccccn2)CC1)NC1CC1 (stereo not shown) [Example 123] | 83.5 | 330 | 
O=S(=O)(CCCCCCN1CCN(C(c2ccccc2)c2ccccc2)CC1)NC1CC1 [Example 126] | 80.8 | 300 | 
O=S(=O)(CCCCCN1CCN(C(c2ccccc2)c2ccc(Cl)cc2)CC1)NC1CCC1 (stereo not shown) [Example 127] | 90.7 | 410 | 
O=S(=O)(CCCCCCN1CCN(C(c2ccccc2)c2ccccc2)CC1)NC1CCC1 [Example 134] | 87.1 | 580 | 
O=S(=O)(CCCCCCN1CCN(C(c2ccccc2)c2ccccc2)CC1)NC1CCCC1 [Example 141] | 87.4 | 210 | 
O=S(=O)(CCCCCCN1CCN(C(c2ccccc2)c2ccccc2)CC1)NC1CCCCC1 [Example 149] | 97.7 | 310 | 
NS(=O)(=O)CCCCCCN1CCN(C(c2ccccc2)c2ccc(Cl)cc2)CC1 (stereo not shown) [Example 153, potassium 6-[[4-(4-chlorophenyl)phenylmethyl]-1-piperazinyl]hexylsulfonamide] |  |  | % suppression of rat PCA ([1]; 10 mg/kg-po, 1 hour before antigen challenge): 86.2%; mouse acute toxicity (lethal dose) [4]: > 500 mg/kg; inhibition in vivo at 0.1 mg/kg ([3]; 1 h, 0.1 mg/kg, oral, read-out: immediate edema (1 hr) suppression (%)): 24%; inhibition in vivo at 1 mg/kg [3, 6]: 56%; inhibition in vivo at 0.1 mg/kg [3, 7]: 24%; inhibition in vivo at 1 mg/kg [3, 8]: 48%
O=S(=O)(O)CCCCN1CCN(C(c2ccc(F)cc2)c2ccccn2)CC1 (stereo not shown) [Ref. Ex. 4, 4-[4-[4-fluorophenyl-(2-pyridyl)methyl]-1-piperazinyl]butylsulfonic acid, reference compound] | 0 |  | antiallergic activity / activity of suppressing PCA (in words) ([1]; rat, in vivo): did not show an antiallergic activity
CC(C)c1ccc2oc3nc(N)c(C(=O)O)cc3c(=O)c2c1 [amlexanox, reference compound] |  |  | inhibition in vivo at 3 mg/kg [3, 9]: 38.5%; inhibition in vivo at 10 mg/kg [3, 9]: 38.5%; inhibition in vivo at 30 mg/kg [3, 9]: 50%; inhibition in vivo at 3 mg/kg [3, 10]: 12.1%; inhibition in vivo at 30 mg/kg [3, 10]: 6.1%; suppression of the immediate allergic reaction (in words) [3]: suppressed the immediate allergic reaction; suppression of the late allergic reaction (in words) [3]: did not suppress the late allergic reaction
C[C@@H]1C[C@H]2[C@@H]3CCC4=CC(=O)C=C[C@]4(C)[C@@]3(F)[C@@H](O)C[C@]2(C)[C@@]1(O)C(=O)CO [dexamethasone, reference compound] |  |  | inhibition in vivo at 0.1 mg/kg ([3]; ip, 1 h, 0.1 mg/kg (i.p.), read-out: immediate edema (1 hr) suppression (%)): 32.4%; inhibition in vivo at 1 mg/kg ([3]; ip, 1 h, dexamethasone 1.0 mg/kg, (i.p.) printed only at the 0.1 line, read-out: immediate edema (1 hr) suppression (%)): 32.4%; inhibition in vivo at 3 mg/kg ([3]; ip, 1 h, dexamethasone 3.0 mg/kg, (i.p.) printed only at the 0.1 line, read-out: immediate edema (1 hr) suppression (%)): 11.8%; inhibition in vivo at 0.1 mg/kg ([3]; ip, 24 h, 0.1 mg/kg (i.p.), read-out: late edema (24 hr) suppression (%)): 34.3%; inhibition in vivo at 1 mg/kg ([3]; ip, 24 h, dexamethasone 1.0 mg/kg, (i.p.) printed only at the 0.1 line, read-out: late edema (24 hr) suppression (%)): 42.9%; inhibition in vivo at 3 mg/kg ([3]; ip, 24 h, dexamethasone 3.0 mg/kg, (i.p.) printed only at the 0.1 line, read-out: late edema (24 hr) suppression (%)): 45.7%; suppression of the late allergic reaction (in words) [3]: showed the strong activity of suppressing the late allergic reaction
CN(C)CCOC(c1ccccc1)c1ccccc1 [diphenhydramine, reference compound] |  |  | inhibition in vivo at 3 mg/kg ([3]; 1 h, 3.0 mg/kg, oral, read-out: immediate edema (1 hr) suppression (%)): 17.8%; inhibition in vivo at 10 mg/kg ([3]; 1 h, 10.0 mg/kg, oral, read-out: immediate edema (1 hr) suppression (%)): 13.3%; inhibition in vivo at 30 mg/kg ([3]; 1 h, 30.0 mg/kg, oral, read-out: immediate edema (1 hr) suppression (%)): 53.3%; inhibition in vivo at 30 mg/kg ([3]; 24 h, 30.0 mg/kg, oral, read-out: late edema (24 hr) suppression (%)): 14.3%; suppression of the immediate allergic reaction (in words) [3]: suppressed the immediate allergic reaction; suppression of the late allergic reaction (in words) [3]: did not suppress the late allergic reaction
CN1CCC(=C2c3ccccc3CC(=O)c3sccc32)CC1 [ketotifen, reference compound] |  |  | inhibition in vivo at 2 mg/kg ([1]; Rattus norvegicus, po, 1 h, read-out: % suppression of rat PCA): 47.4 to 73.6%; mouse acute toxicity (lethal dose) [4]: 500 mg/kg
